Species: Rattus norvegicus
Experiment: DrugMatrix - Regimen: Daily Repeat
Assay type: toxicity, organism-based, Sprague-Dawley
Design: regimen Daily Repeat, gender Male, age 6-8 weeks
Conditions: in vivo, po, route oral GAVAGE, vehicle 100 % WATER; for ABSOLUTE BASOPHIL / ABSOLUTE EOSINOPHIL / ABSOLUTE LYMPHOCYTE / ABSOLUTE MONOCYTE / ABSOLUTE SEGMENTED NEUTROPHIL / BASOPHIL / EOSINOPHIL / ERYTHROCYTE COUNT / HEMATOCRIT / HEMOGLOBIN / LEUKOCYTE COUNT / LYMPHOCYTE / MEAN CORPUSCULAR HEMOGLOBIN / MEAN CORPUSCULAR HEMOGLOBIN CONCENTRATION / NEUTROPHIL / NUCLEATED RED BLOOD CELLS / PLATELET COUNT: tissue Blood; for ALANINE AMINOTRANSFERASE / ALBUMIN / ALKALINE PHOSPHATASE / ASPARTATE AMINOTRANSFERASE / BLOOD UREA NITROGEN / CARBON DIOXIDE / CHLORIDE / CREATINE PHOSPHOKINASE / CREATININE / GLUCOSE / LACTATE DEHYDROGENASE / LIPASE / PHOSPHORUS / POTASSIUM / SODIUM / TOTAL BILIRUBIN / TOTAL PROTEIN / URIC ACID / CHOLESTEROL: tissue Plasma
[1] = 0 mg/kg, 72 h, dose level Control, time 3 day
[2] = 0 mg/kg, 120 h, dose level Control, time 5 day
[3] = 94 mg/kg, 72 h, dose level High, time 3 day

SMILES: CN1[C@@H]2CC[C@H]1C[C@@H](OC(=O)C(CO)c1ccccc1)C2 (some centres not stated) [ATROPINE]
- ABSOLUTE BASOPHIL [1]: 0 CELLS/uL
- ABSOLUTE EOSINOPHIL [1]: 33.67 CELLS/uL
- ABSOLUTE LYMPHOCYTE [1]: 11257.17 CELLS/uL
- ABSOLUTE MONOCYTE [1]: 72.17 CELLS/uL
- ABSOLUTE SEGMENTED NEUTROPHIL [1]: 1220.33 CELLS/uL
- BASOPHIL [1]: 0%
- EOSINOPHIL [1]: 0.33%
- ERYTHROCYTE COUNT [1]: 5 x10E6/uL
- HEMATOCRIT [1]: 32.62%
- HEMOGLOBIN [1]: 12.83 G/DL
- LEUKOCYTE COUNT [1]: 12.58 x10E3/uL
- LYMPHOCYTE [1]: 89%
- MEAN CORPUSCULAR HEMOGLOBIN [1]: 25.67 pg
- MEAN CORPUSCULAR HEMOGLOBIN CONCENTRATION [1]: 39.35 G/DL
- NEUTROPHIL [1]: 10%
- NUCLEATED RED BLOOD CELLS [1]: 0 /100WBC
- PLATELET COUNT [1]: 1162.5 x10E3/uL
- ALANINE AMINOTRANSFERASE [1]: 45.33 u/L
- ALBUMIN [1]: 3.95 G/DL
- ALKALINE PHOSPHATASE [1]: 356.17 u/L
- ASPARTATE AMINOTRANSFERASE [1]: 81 u/L
- BLOOD UREA NITROGEN [1]: 11 mg/dL
- CARBON DIOXIDE [1]: 29.83 mmol/L
- CHLORIDE [1]: 97.8 MEQ/L
- CREATINE PHOSPHOKINASE [1]: 211.33 u/L
- CREATININE [1]: 0.11 mg/dL
- GLUCOSE [1]: 164.67 mg/dL
- LACTATE DEHYDROGENASE [1]: 143.17 u/L
- LIPASE [1]: 10.17 u/L
- PHOSPHORUS [1]: 10.88 mg/dL
- POTASSIUM [1]: 6.08 MEQ/L
- SODIUM [1]: 141.54 MEQ/L
- TOTAL BILIRUBIN [1]: 0.23 mg/dL
- TOTAL PROTEIN [1]: 5.65 G/DL
- URIC ACID [1]: 1 mg/dL
- ABSOLUTE BASOPHIL [2]: 0 CELLS/uL
- ABSOLUTE EOSINOPHIL [2]: 48.67 CELLS/uL
- ABSOLUTE LYMPHOCYTE [2]: 9267.83 CELLS/uL
- ABSOLUTE MONOCYTE [2]: 194.33 CELLS/uL
- ABSOLUTE SEGMENTED NEUTROPHIL [2]: 572.5 CELLS/uL
- BASOPHIL [2]: 0%
- EOSINOPHIL [2]: 0.33%
- ERYTHROCYTE COUNT [2]: 5.41 x10E6/uL
- HEMATOCRIT [2]: 36.17%
- HEMOGLOBIN [2]: 13.9 G/DL
- LEUKOCYTE COUNT [2]: 10.08 x10E3/uL
- LYMPHOCYTE [2]: 92.17%
- MEAN CORPUSCULAR HEMOGLOBIN [2]: 25.73 pg
- MEAN CORPUSCULAR HEMOGLOBIN CONCENTRATION [2]: 38.45 G/DL
- NEUTROPHIL [2]: 5.67%
- NUCLEATED RED BLOOD CELLS [2]: 0.33 /100WBC
- PLATELET COUNT [2]: 1122.33 x10E3/uL
- ALANINE AMINOTRANSFERASE [2]: 52.83 u/L
- ALBUMIN [2]: 4.12 G/DL
- ALKALINE PHOSPHATASE [2]: 367.33 u/L
- ASPARTATE AMINOTRANSFERASE [2]: 88 u/L
- BLOOD UREA NITROGEN [2]: 12.67 mg/dL
- CARBON DIOXIDE [2]: 33.67 mmol/L
- CHLORIDE [2]: 97 MEQ/L
- CHOLESTEROL [2]: 67.5 mg/dL
- CREATINE PHOSPHOKINASE [2]: 358.67 u/L
- CREATININE [2]: 0.14 mg/dL
- GLUCOSE [2]: 152.33 mg/dL
- LACTATE DEHYDROGENASE [2]: 180 u/L
- LIPASE [2]: 10.5 u/L
- PHOSPHORUS [2]: 10.63 mg/dL
- POTASSIUM [2]: 5.99 MEQ/L
- SODIUM [2]: 141.85 MEQ/L
- TOTAL BILIRUBIN [2]: 0.2 mg/dL
- TOTAL PROTEIN [2]: 6.18 G/DL
- URIC ACID [2]: 0.52 mg/dL
- ABSOLUTE BASOPHIL [3]: 0 CELLS/uL
- ABSOLUTE EOSINOPHIL [3]: 0 CELLS/uL
- ABSOLUTE LYMPHOCYTE [3]: 12944 CELLS/uL
- ABSOLUTE MONOCYTE [3]: 33.33 CELLS/uL
- ABSOLUTE SEGMENTED NEUTROPHIL [3]: 789.33 CELLS/uL
- BASOPHIL [3]: 0%
- EOSINOPHIL [3]: 0%
- ERYTHROCYTE COUNT [3]: 5.37 x10E6/uL
- HEMATOCRIT [3]: 33.77%
- HEMOGLOBIN [3]: 13.4 G/DL
- LEUKOCYTE COUNT [3]: 13.77 x10E3/uL
- LYMPHOCYTE [3]: 93.67%
- MEAN CORPUSCULAR HEMOGLOBIN [3]: 24.93 pg
- MEAN CORPUSCULAR HEMOGLOBIN CONCENTRATION [3]: 39.67 G/DL
- NEUTROPHIL [3]: 6%
- NUCLEATED RED BLOOD CELLS [3]: 0 /100WBC
- PLATELET COUNT [3]: 1031.67 x10E3/uL
- ALANINE AMINOTRANSFERASE [3]: 59.33 u/L
- ALBUMIN [3]: 4.03 G/DL
- ALKALINE PHOSPHATASE [3]: 322.67 u/L
- ASPARTATE AMINOTRANSFERASE [3]: 115 u/L
- BLOOD UREA NITROGEN [3]: 11 mg/dL
- CARBON DIOXIDE [3]: 26.33 mmol/L
- CHLORIDE [3]: 102.5 MEQ/L
- CHOLESTEROL [3]: 72.67 mg/dL
- CREATINE PHOSPHOKINASE [3]: 681.33 u/L
- CREATININE [3]: 0.13 mg/dL
- GLUCOSE [3]: 149.67 mg/dL
- LACTATE DEHYDROGENASE [3]: 237 u/L
- LIPASE [3]: 10.67 u/L
- PHOSPHORUS [3]: 9.43 mg/dL
- POTASSIUM [3]: 5.53 MEQ/L
- SODIUM [3]: 142.3 MEQ/L
- TOTAL BILIRUBIN [3]: 0.3 mg/dL
- TOTAL PROTEIN [3]: 5.6 G/DL
- URIC ACID [3]: 1 mg/dL

Source: ChEMBL document CHEMBL3885881, “DrugMatrix”
